GI50 and TGI data for nine molecules are collected here from PubChem BioAssay (NCI).

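Each compound was tested at five concentrations against cells in 96-well plates for 48 hours. GI50 is the concentration that inhibits growth by half. TGI is the concentration that stops growth completely.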 Bounds are passed on as bounds.

Test systems include COLO 205 colon; DU-145 prostate; HCC-2998 colon; HCT-15 colon; HL-60(TB) leukemia; HOP-92 NSCLC; MDA-MB-231 breast; NCI-H23 lung; OVCAR-5 ovarian; SF-268 CNS.
What all share (assay): DTP human tumour cell line panel, 48 h

In general, GI50 refers to the concentration that inhibits growth by half. A word on the TGI: it is the concentration at which net growth stops. Read a low TGI as greater sensitivity of the cells. For `COc1ccccc1CNCCCN1C(=O)c2ccc3c4c(ccc(c24)C1=O)C(=O)N(CCCNCc1ccccc1OC)C3=O`, the GI50 in the assay with COLO 205 colon is 0.121 µM; in the assay with DU-145 prostate it was 0.163 µM; with HCC-2998 colon, 0.166 µM; in the assay with HCT-15 colon it was 0.191 µM; in the assay on HL-60(TB) leukemia, 0.212 µM; with HOP-92 NSCLC it was 0.243 µM. Moreover, the GI50 is 0.227 µM in the assay on MDA-MB-231 breast, 0.179 µM in the assay on NCI-H23 lung, 0.225 µM in the assay with OVCAR-5 ovarian and 0.257 µM in the assay with SF-268 CNS. The TGI in the assay on COLO 205 colon stood at 0.256 µM; with DU-145 prostate, 0.309 µM; in the assay on HCC-2998 colon, 0.328 µM; with HCT-15 colon, 0.465 µM; in the assay with HL-60(TB) leukemia, 0.453 µM; in the assay with HOP-92 NSCLC it was 0.847 µM. The TGI worked out at 0.867 µM with MDA-MB-231 breast, 0.443 µM with NCI-H23 lung, 0.597 µM in the assay with OVCAR-5 ovarian and 0.834 µM with SF-268 CNS.

As for `c1cc(OCCCCCOc2cccc(-c3nc4ccccc4[nH]3)c2)cc(-c2nc3ccccc3[nH]2)c1`, the GI50 was 1.47 µM with COLO 205 colon; 3.27 µM in the assay on DU-145 prostate; 3.32 µM with HCC-2998 colon; 2.71 µM in the assay with HCT-15 colon; 1.09 µM in the assay with HOP-92 NSCLC; 4.08 µM in the assay on MDA-MB-231 breast. In addition, the values for the GI50 in the assay on OVCAR-5 ovarian and with SF-268 CNS were 2.76 µM and 5.12 µM, respectively. In addition, the TGI was 2.79 µM in the assay with COLO 205 colon; more than 100 µM in the assay with DU-145 prostate; 28 µM with HCC-2998 colon; more than 100 µM in the assay with HCT-15 colon; 4.68 µM in the assay on HOP-92 NSCLC; 30.9 µM with MDA-MB-231 breast. For the same molecule, the TGI in the assay with OVCAR-5 ovarian and with SF-268 CNS was more than 100 µM throughout.

Turning to `CC[C@]12C=CCN3CC[C@@]4(c5ccc(OC)cc5N(C)[C@H]4[C@@](O)(C(=O)OC)[C@@H]1OC(=O)CCCN1CCN(CCCC(=O)O[C@@H]4[C@]5(CC)C=CCN6CC[C@@]7(c8ccc(OC)cc8N(C)[C@H]7[C@@]4(O)C(=O)OC)[C@@H]65)CC1)[C@@H]32`, the GI50 with COLO 205 colon is 1.67 µM; in the assay with DU-145 prostate, 0.701 µM; with HCC-2998 colon, 1.66 µM; with HCT-15 colon, 1.2 µM; in the assay with HL-60(TB) leukemia it was 0.464 µM; in the assay on MDA-MB-231 breast, 0.665 µM. The GI50 with NCI-H23 lung is 1.59 µM; with OVCAR-5 ovarian, 1.82 µM; in the assay with SF-268 CNS, 0.919 µM. The TGI with COLO 205 colon worked out at 3.25 µM; with DU-145 prostate, 1.99 µM; with HCC-2998 colon, 3.26 µM; in the assay with HCT-15 colon, 2.61 µM; in the assay with HL-60(TB) leukemia, 1.85 µM; with MDA-MB-231 breast it was 2.02 µM. The figures for the TGI with NCI-H23 lung, with OVCAR-5 ovarian and with SF-268 CNS were 3.13 µM, 3.47 µM and 2.38 µM, respectively.

`O=[N+]([O-])c1ccc(/C=C(/c2ccc([N+](=O)[O-])o2)S(=O)(=O)c2ccccc2)cc1`: the TGI in the assay on COLO 205 colon is more than 100 µM; with DU-145 prostate it was more than 100 µM; with HCT-15 colon, 88.7 µM; in the assay with HL-60(TB) leukemia, 74.1 µM; with HOP-92 NSCLC, more than 100 µM; in the assay with MDA-MB-231 breast, 88.2 µM. Also, the TGI in the assay on NCI-H23 lung, in the assay with OVCAR-5 ovarian and in the assay with SF-268 CNS was more than 100 µM in each case.

`COc1ccc(-c2c(Nc3ccccn3)nc3c(C4=CCCCC4)c(-c4ccccc4)[nH]n3c2=O)cc1`: the GI50 is 2.34 µM in the assay with COLO 205 colon; 3.62 µM in the assay on DU-145 prostate; 3.7 µM in the assay on HCC-2998 colon; 1.64 µM in the assay with HCT-15 colon; 1.45 µM with HOP-92 NSCLC; 2.73 µM in the assay with MDA-MB-231 breast. Besides, the GI50 is 4.17 µM in the assay on NCI-H23 lung, 5.52 µM in the assay on OVCAR-5 ovarian and 2.64 µM in the assay with SF-268 CNS. In addition, the TGI with COLO 205 colon is more than 100 µM; with DU-145 prostate, more than 100 µM; with HCC-2998 colon, more than 100 µM; with HCT-15 colon, more than 100 µM; in the assay with HOP-92 NSCLC, 9.26 µM; in the assay with MDA-MB-231 breast, 16.5 µM. Further, the TGI is 24.1 µM in the assay with NCI-H23 lung, more than 100 µM in the assay on OVCAR-5 ovarian and 42.4 µM in the assay on SF-268 CNS.

`COc1cc2c(cc1OCCN1CCN(CCN3C(=O)c4cccc5cccc(c45)C3=O)CC1)N=C[C@@H]1CCCN1C2=O`: the GI50 is 24.8 µM with COLO 205 colon; 16.9 µM in the assay with DU-145 prostate; 15.8 µM in the assay on HCT-15 colon; 19.9 µM in the assay on MDA-MB-231 breast; 13 µM with NCI-H23 lung; 19 µM in the assay on OVCAR-5 ovarian. Also, the GI50 with SF-268 CNS is 15.8 µM. The TGI came to 44.8 µM in the assay on COLO 205 colon; 30.6 µM with DU-145 prostate; 31.1 µM in the assay with HCT-15 colon; 39.8 µM in the assay on MDA-MB-231 breast; 25.6 µM in the assay with NCI-H23 lung; 35 µM in the assay on OVCAR-5 ovarian. Also, the TGI with SF-268 CNS came to 33 µM.

On to `O=C(CC1(O)C(=O)Nc2c(Cl)cc(Cl)cc21)c1cccc([N+](=O)[O-])c1` (stereo unspecified), for which the TGI with COLO 205 colon is more than 61.7 µM; in the assay on DU-145 prostate it was more than 100 µM; in the assay with HCC-2998 colon, more than 70.4 µM; in the assay on HCT-15 colon it was more than 100 µM; in the assay with HOP-92 NSCLC, 80.9 µM; in the assay with MDA-MB-231 breast it was 64.7 µM. Also, the TGI is 52.3 µM in the assay on NCI-H23 lung, more than 100 µM in the assay with OVCAR-5 ovarian and more than 100 µM in the assay with SF-268 CNS.

`COc1cc2c(cc1C)NC(=O)/C2=C\c1ccc(Oc2ccccc2)cc1`: the GI50 with COLO 205 colon was 20.7 µM; in the assay on DU-145 prostate, 13.2 µM; in the assay on HCC-2998 colon, 16.3 µM; with HCT-15 colon it was 12.1 µM; in the assay on HL-60(TB) leukemia, 0.0511 µM; in the assay on HOP-92 NSCLC, 2.03 µM. Besides, the GI50 with MDA-MB-231 breast is 18.2 µM; in the assay on NCI-H23 lung, 15.6 µM; with OVCAR-5 ovarian, 18.7 µM. Further, the TGI in the assay with COLO 205 colon worked out at 36.9 µM; with DU-145 prostate, 26 µM; in the assay on HCC-2998 colon it was 29.9 µM; in the assay with HCT-15 colon it was 24.5 µM; in the assay on HL-60(TB) leukemia it was 11.8 µM; in the assay with HOP-92 NSCLC, 9.19 µM. For the same molecule, the TGI was 37.5 µM in the assay with MDA-MB-231 breast, 32.2 µM with NCI-H23 lung and 36.5 µM in the assay with OVCAR-5 ovarian.

On to `O=S(=O)(O)C(c1ccccc1)C(O)c1ccccc1` (stereo unspecified), for which the TGI in the assay with COLO 205 colon, in the assay on DU-145 prostate, in the assay with HCT-15 colon, with HL-60(TB) leukemia, in the assay with HOP-92 NSCLC and with MDA-MB-231 breast was more than 100 µM in each case. Besides, the TGI in the assay on NCI-H23 lung, with OVCAR-5 ovarian and in the assay on SF-268 CNS was more than 100 µM each time.
